Experimental data published in ChEMBL document CHEMBL3616376, “Anti-proliferative activity of Monensin and its tertiary amide derivatives” (Bioorg Med Chem Lett, 2015).

Key:
LoVo [1] = assay: Antiproliferative activity against human LoVo cells; format: functional, cell-based
[2] = Antiproliferative activity against human LoVo/DX cells; format: functional, cell-based
MV4-11 = assay: Antiproliferative activity against human MV4-11 cells; format: functional, cell-based
BALB/3T3 = assay: Cytotoxicity against mouse BALB/3T3 cells; format: cell-based
[3] = Selectivity index, ratio of IC50 for mouse BALB/3T3 cells to IC50 for human LoVo cells; format: functional
[4] = Selectivity index, ratio of IC50 for mouse BALB/3T3 cells to IC50 for human LoVo/Dx cells; format: functional
LoVo [5] = assay: Resistance index, ratio of IC50 for human LoVo/DX cells to IC50 for human LoVo cells; format: functional
[6] = Selectivity index, ratio of IC50 for mouse BALB/3T3 cells to IC50 for human MV4-11 cells; format: functional

SMILES	IC50 (LoVo [1])	IC50 [2]	IC50 (MV4-11)	IC50 (BALB/3T3)	Ratio IC50 [3]	Ratio IC50 [4]	Ratio IC50 (LoVo [5])	Ratio IC50 [6]
CCN(CC)C(=O)[C@@H](C)[C@H](OC)[C@H](C)[C@H]1O[C@@]2(CC[C@@](C)([C@H]3CC[C@@](CC)([C@@H]4O[C@@H]([C@H]5O[C@@](O)(CO)[C@H](C)C[C@@H]5C)C[C@@H]4C)O3)O2)C[C@H](O)[C@H]1C	10.7 µM	4.63 µM	5.44 µM	28.1 µM	2.63	6.07	0.43	5.17
CC[C@@]1([C@@H]2O[C@@H]([C@H]3O[C@@](O)(CO)[C@H](C)C[C@@H]3C)C[C@@H]2C)CC[C@H]([C@]2(C)CC[C@]3(C[C@H](O)[C@@H](C)[C@@H]([C@@H](C)[C@@H](OC)[C@H](C)C(=O)N4CCOCC4)O3)O2)O1	19.8 µM	4.86 µM	2.51 µM	49.6 µM	2.5	10.21	0.25	19.78
CCCN(CCC)C(=O)[C@@H](C)[C@H](OC)[C@H](C)[C@H]1O[C@@]2(CC[C@@](C)([C@H]3CC[C@@](CC)([C@@H]4O[C@@H]([C@H]5O[C@@](O)(CO)[C@H](C)C[C@@H]5C)C[C@@H]4C)O3)O2)C[C@H](O)[C@H]1C	4.35 µM	6.09 µM	5.96 µM	7.73 µM	1.78	1.27	1.4	1.3
CC[C@@]1([C@@H]2O[C@@H]([C@H]3O[C@@](O)(CO)[C@H](C)C[C@@H]3C)C[C@@H]2C)CC[C@H]([C@]2(C)CC[C@]3(C[C@H](O)[C@@H](C)[C@@H]([C@@H](C)[C@@H](OC)[C@H](C)C(=O)N(CCOC)CCOC)O3)O2)O1	36.6 µM	10.1 µM	27.5 µM	42 µM	1.15	4.16	0.28	1.53
CC[C@@]1([C@@H]2O[C@@H]([C@H]3O[C@@](O)(CO)[C@H](C)C[C@@H]3C)C[C@@H]2C)CC[C@H]([C@]2(C)CC[C@]3(C[C@H](O)[C@@H](C)[C@@H]([C@@H](C)[C@@H](OC)[C@H](C)C(=O)O)O3)O2)O1 [MONENSIN]	1.09 µM	0.61 µM	0.09 µM	20.9 µM	19.17	34.25	0.56	232.11
CC[C@@]1([C@@H]2O[C@@H]([C@H]3O[C@@](O)(CO)[C@H](C)C[C@@H]3C)C[C@@H]2C)CC[C@H]([C@]2(C)CC[C@]3(C[C@H](O)[C@@H](C)[C@@H]([C@@H](C)[C@@H](OC)[C@H](C)C(=O)N(Cc4ccccc4)Cc4ccccc4)O3)O2)O1	3.71 µM	3.78 µM	3.28 µM	13.1 µM	3.53	3.46	1.02	3.99
CC[C@@]1([C@@H]2O[C@@H]([C@H]3O[C@@](O)(CO)[C@H](C)C[C@@H]3C)C[C@@H]2C)CC[C@H]([C@]2(C)CC[C@]3(C[C@H](O)[C@@H](C)[C@@H]([C@@H](C)[C@@H](OC)[C@H](C)C(=O)N4CCNCC4)O3)O2)O1	8.65 µM	20.7 µM	3.24 µM	33 µM	3.82	1.6	2.39	10.19
COc1cccc2c1C(=O)c1c(O)c3c(c(O)c1C2=O)C[C@@](O)(C(=O)CO)C[C@@H]3O[C@H]1C[C@H](N)[C@H](O)[C@H](C)O1 [DOXORUBICIN]	0.28 µM	6.73 µM		0.53 µM	1.89	0.08	23.62	
